# Experimental data: patent US9848603B2, “Methods for protecting plants with antifungal compositions” (priority 2008, dated 2017)
# Assays:
# [1] = test system: Fusarium oxysporum f. sp. vasinfectum (Fov); format: cell-based; conditions: read-out: NaD1 IC50
# Leptosphaeria maculans [2] = format: cell-based; conditions: read-out: NaD1 IC50
# Aspergillus nidulans = format: cell-based; conditions: read-out: NaD1 IC50
# Verticillium dahliae [3] = format: cell-based; conditions: read-out: NaD1 IC50
# Thielaviopsis basicola = format: cell-based; conditions: read-out: NaD1 IC50
# Staphylococcus aureus = assay: Effect of NaD1 on bacterial growth; format: cell-based
# Bacillus cereus = assay: Effect of NaD1 on bacterial growth; format: cell-based
# Escherichia coli = assay: Effect of NaD1 on bacterial growth; format: cell-based
# Pseudomonas aeruginosa = assay: Effect of NaD1 on bacterial growth; format: cell-based
# Fov hyphae [4] = assay: Membrane permeabilization of Fov hyphae, SYTOX green uptake; format: cell-based, Fusarium oxysporum f. sp. vasinfectum
# Fov hyphae [5] = assay: Immunogold electron microscopy of NaD1-treated hyphae; format: cell-based, Fusarium oxysporum f. sp. vasinfectum; conditions: NaD1 (10 μM) for 2 h
# Fusarium graminearum [6] = assay: microbe, parasite or virus in culture; format: cell-based
# Verticillium dahliae [7] = assay: Field trial of transgenic and non-transgenic cotton seed coated with fungicide in Verticillium dahliae infected soil; format: in vivo
# Leptosphaeria maculans [8] = assay: Fungal glasshouse bioassay of transgenic canola seedlings expressing NaD1; format: in vivo, canola (Brassica napus); conditions: NaD1 expressed in transgenic canola line CAT13.26
# F. graminearum hyphae [9] = format: cell-based, Fusarium graminearum; conditions: various concentrations of NaD1
# F. graminearum hyphae [10] = format: cell-based, Fusarium graminearum
# Fusarium graminearum [11] = format: cell-based; conditions: defensin in combination with the triazole tebuconazole
# filamentous fungi = format: cell-based; conditions: Fov, F. graminearum, F. oxysporum f. sp. dianthi and lycopersici, F. solani, F. pseudograminearum, C. heterostrophus, A. brassicola, G. graminis var. tritici, T. basicola, V. dahliae, A. nidulans, S. sclerotiorum, B. cinerea, L. maculans
# Fov [12] = conditions: transgenic cotton variety expressing NaD1, field trials; cited from earlier work
# [13] = test system: Spodoptera frugiperda (Sf21) insect cells; assay: Effect of NaD1 on growth of insect cells
# Method: The effect of NaD1 on the growth of Insect cells was determined as follows. Spodoptera frugiperda (Sf21) insect cells were grown to ˜90% confluency in Sf-900 II serum free media (Gibco™, 20 mL) in a 75 cm^2 tissue culture flask with a vented cap (Nunc). Cells were then split one in two with fresh media. Cell suspension was added to 96-well flat-bottomed microtitre plate wells (190 μL/well) and the cells were allowed to settle for 30 min prior to addition of NaD1 (10 μL) to give a final concentration of 0-10 μM. Growth was monitored until the cells reached confluency (˜48 h).
# Candida albicans = assay: Effect of NaD1 on growth of yeast strains
# Method: (§1) The effect of NaD1 on the growth of the yeast strains Candida albicans, Pichia pastoris and Saccharomyces cerevisiae (from Department of Microbiology, La Trobe University) was assayed in microtitre plates. Cells were grown in YPD for 48 h, then counted using a haemocytometer and diluted to a concentration of 5×10^4 cells/mL in fresh YPD. Cell suspension (100 μL) containing 0-10 μM NaD1 was added to the wells of a 96-well microtitre plate and incubated for 48 h at 30° C. Growth was determined by measuring the optical density at 595 nm using a microtitre plate reader. Each test was performed in quadruplicate.
# Saccharomyces cerevisiae = assay: Effect of NaD1 on growth of yeast strains
# Method: as §1
# Pichia pastoris = assay: Effect of NaD1 on growth of yeast strains
# Method: as §1
# Fov hyphae [14] = assay: Uptake of FITC-labeled dextrans into NaD1-treated hyphae
# Method: The uptake of FITC-labeled dextran with NaD1 treatment of fungal hyphae was also studied. Fov hyphae were grown as described above and incubated with NaD1 (final concentration 0.1, 2, 10 or 50 μM) or an equivalent volume of water for 2 h at RT with gentle agitation. Hyphae were washed twice for 10 min with half-strength PDB to remove excess NaD1 before FITC dextrans of either 4 kDa (FD-4, Sigma-Aldrich) or 10 kDa (FD-10, Sigma-Aldrich) were added to a final concentration of 1 mg/mL. Hyphae were incubated for a further 30 min at RT and then washed twice with half strength PDB to remove excess dextrans. Fluorescence microscopy was used to visualize hyphae as described for SYTOX® green. A second assay was performed under the same conditions except the dextrans were added at the same time as NaD1.
# Fov [15] = assay: Effect of metal ions (CaCl2, MgCl2) on NaD1 activity against Fov; conditions: NaD1 10 μM; growth of Fov
# Method: The activity of NaD1 against Fov was examined as described with varying concentrations of CaCl2 (0.1, 0.2, 0.5, 1.0 and 2.0 μM) or MgCl2 (1.0, 2.0, 10, 20 and 50 μM) present in the medium to determine the effects of divalent cations on NaD1 activity.
# Fov hyphae [16] = assay: Detection of reactive oxygen species (DHR123 oxidation) in response to NaD1; conditions: NaD1 0.1, 2 and 10 μM or 10 μM NaD1R&A
# Fov hyphae [17] = assay: Isolation of NaD1 from treated hyphae (SDS-PAGE and immunoblotting of cytoplasmic contents)
# Method: Fov hyphae were grown as described above prior to the addition of NaD1 (10 μM final concentration) to 1 mL of the culture. Samples (100 μL) were collected after 0, 5, 10, 30, 60, 90 and 120 min. Hyphae were collected by centrifugation (10 min, 10,000×g) and the supernatant was stored at −20° C. for analysis. Hyphae were washed (2×10 min) with KCl (0.6 M) to remove any ionically bound protein before they were resuspended in 50 mM CAPS buffer (pH 10.0) containing 10 mM DTT for 20 min. Hyphae were collected by centrifugation and the supernatant, containing cell wall proteins, was collected for analysis. The pellet (containing cells) was resuspended in water and the cells were lysed using glass beads (Sigma, 60 mg) and vortexing (3×10 min). Cellular debris was removed by centrifugation (16,000×g, 10 min) and the supernatant collected for analysis. All samples were then analyzed by SDS-PAGE and immunoblotting.
# [18] = test system: Fusarium oxysporum f. sp. vasinfectum (Fov); assay: Field trial of transgenic and non-transgenic cotton seed coated with fungicide in Fov infected soil; conditions: NaD1 expressed in transgenic line 35.125.1, coated or uncoated
# Method: Seed of the two lines were either not coated with fungicide or were coated with the fungicide HEC5725 (active ingredient fluoxastrobin, Bayer CropScience, batch number 06529/0022) at a rate of 1 mL/kg of seed, or with the commercial seed coat fungicides Dynasty® (Registered Trademark) (active ingredients 75 g/L azoxystrobin, 37.5 g/L metalaxyl-m, 12.5 g/L fludioxonil, Syngenta) at a rate of 2 mL/kg of seed, Jockey® (Registered Trademark) (active ingredient 167 g/L fluquinconazole, Bayer CropScience) at a rate of 20 mL/kg of seed or Redigo® (Registered Trademark) (active ingredient 100 g/L prothioconazole, Bayer CropScience) at a rate of 1 mL/kg of seed. All seed (coated and uncoated with fungicide) was coated with the insecticide Gaucho® (Registered Trademark) (600 g/L imidacloprid, Bayer CropScience) to control early season thrips and aphids. Seed was prepared to ensure even coating of fungicide and insecticide and allowed to dry prior to sowing.
# Plants were grown at a farm in the Darling Downs region of Queensland, Australia. Seed was mechanically planted into soil known to be infected with Fusarium oxysporum f.sp. vasinfectum. […]
# Emergence and plant survival were recorded. […] Statistical significance of the interaction of plant line and mortality was calculated using a Pearson's chi-square test.
# [19] = test system: Fusarium oxysporum f. sp. vasinfectum (Fov); assay: Glasshouse bioassay of transgenic and non-transgenic cotton seed coated with fungicide in Fov infected soil; conditions: transgenic Coker expressing NaD1, seeds not coated with fungicide
# Method: Cultures of Fov (isolate #24500 VCG 01111) were prepared in millet and incorporated into a soil mix. The infected soil was used to grow line 35.125.1 and non-transgenic Coker 315. The culture of Fov was prepared in ½ strength PDB (12 g/L potato dextrose) and grown for approximately one week at 26° C. The culture (5 to 10 mL) was used to infect autoclaved hulled millet which was then grown for 2 to 3 weeks at room temperature. The infected millet was incorporated into a pasteurized peat based soil mix at 1% (v/v), by vigorous mixing in a 200 L compost tumbler. The infected soil was transferred to plastic containers (10 L of mix per 13.5 L container).
# The cotton seed was either non-coated or coated with the fungicide HEC5725 (active ingredient Fluoxastrobin, Bayer Crop Science, batch number 06529/0022) at a rate of 1 mL/kg of seed and allowed to dry prior to sowing. Water was added to facilitate even coating of the seed (62.5 mL/kg of seed). Untreated samples were treated with water only.
# Forty eight seeds were planted for each test (transgenic and non-transgenic, coated and non-coated seed). Seed was sown directly into the containers, 12 seed per box in a 3×4 array. […]
# Plants were grown for 7 weeks. Foliar symptom development was measured throughout the trial and disease score was determined by destructive sampling at the end of the trial. […]
# [20] = test system: Fusarium oxysporum f. sp. vasinfectum (Fov); assay: Growth cabinet bioassay of transgenic and non-transgenic cotton seed coated with fungicide in Fov infected soil; conditions: transgenic Coker expressing NaD1, seeds not coated with fungicide
# Method: The assay was conducted as described for the glasshouse assay except for the following modifications.
# Thirty seeds were planted for each test (transgenic and non-transgenic, coated and non-coated seed). Seed was sown directly into the containers, 24 seed per box in a 4×6 array. Six seed for each test were sown randomly in each box. Seeds were germinated for 7 days, conditions were 16 hours light at 30° C. and 8 hours dark at 15° C., with a ramp of 2° C. per hour. For the remainder of the experiment the conditions were 16 hours light at 25° C. and 8 hours dark at 10° C. with a ramp of 2° C. per hour.
# Plants were grown for 4 weeks. Foliar symptom development was measured throughout the trial and disease score was determined by destructive sampling at the end of the trial. The following rating was used to determine the disease score: 0=no symptoms, 1=vascular browning to base of stem, 2=vascular browning to cotyledons, 3=vascular browning past cotyledons, 4=vascular browning to true leaves, 5=dead. The average disease score was an average for all seeds that germinated.
# [21] = read-out: NaD1 IC50, growth inhibition
# Method for HeLa cells: To examine the effect of NaD1 on mammalian cell growth, HeLa cells were seeded at 50% in Dulbecco's modified Eagle's medium (Gibco™-BRL) containing 10% (v/v) fetal calf serum with or without NaD1 (10 μM) at 37° C. under an atmosphere of 5% CO2 and 95% air in a 60 mm Petri dish. Cells were incubated for 48 h at 37° C. before they were stained with trypan blue to check viability and counted using a haemocytometer.
substance,measurement,setting,value
NaD1: plant defensin isolated from floral tissue of Nicotiana alata; also expressed in transgenic cotton line 35.125.1 and canola line CAT13.26 (RECKTESNTFPGICITKPPCRKACISEKFTDGHCSKILRRCLCTKPC; listed as Nicotiana alata),IC50,[1],1000 nM
same,IC50,Leptosphaeria maculans [2],800 nM
same,IC50,Aspergillus nidulans,800 nM
same,IC50,Verticillium dahliae [3],750 nM
same,IC50,Thielaviopsis basicola,800 nM
same,effect on growth,Staphylococcus aureus; Gram-positive bacterial strain tested: Staphylococcus aureus,no effect
same,IC50,"Staphylococcus aureus; growth inhibition, Staphylococcus aureus",> 10000 nM
same,effect on growth,Bacillus cereus; Gram-positive bacterial strain tested: Bacillus cereus,no effect
same,IC50,"Bacillus cereus; growth inhibition, Bacillus cereus",> 10000 nM
same,effect on growth,Escherichia coli; Gram-negative bacterial strain tested: Escherichia coli,no effect
same,IC50,"Escherichia coli; growth inhibition, Escherichia coli",> 10000 nM
same,effect on growth,Pseudomonas aeruginosa; Gram-negative bacterial strain tested: Pseudomonas aeruginosa,no effect
same,IC50,"Pseudomonas aeruginosa; growth inhibition, Pseudomonas aeruginosa",> 10000 nM
same,permeabilization of hyphae (SYTOX green),"Fov hyphae [4]; 0.1, 2 or 10 μM NaD1 or 10 μM NaD1R&A",permeabilized hyphae
same,NaD1 concentration up to which Vmax (maximum rate of fluorescence increase) rose linearly; saturable above,Fov hyphae [4]; SYTOX green uptake,6.25 µM
same,time after which fluorescence began to plateau,Fov hyphae [4]; SYTOX green uptake over time,90 min
same,NaD1 concentration up to which rate of permeabilization increased progressively,Fov hyphae [4]; above this (up to 50 μM) very little difference in kinetics,3 µM
same,lag time before permeabilization,"Fov hyphae [4]; all NaD1 concentrations, SYTOX green uptake over time",around 20 min
same,SYTOX green uptake / permeabilization,Fov hyphae [4]; at 0° C. (relative to 4° C.),reduced even further
same,SYTOX green uptake / permeabilization,Fov hyphae [4]; at 4° C.,only a small degree of permeabilization
same,SYTOX green uptake / permeabilization,Fov hyphae [4]; at 10° C. (less than at 25° C.),substantial uptake of SYTOX® green
same,SYTOX green uptake,"Fov hyphae [4]; lowest concentration, 0.1 μM NaD1",small amount of SYTOX® green uptake
same,anti-NaD1 immunogold labeling of cytoplasm of granulated hyphae,Fov hyphae [5],heavily labeled
same,toxicity with Fusarium graminearum,Fusarium graminearum [6]; 0.24 μM NaD1 in the absence of fungicide,very low
same,inhibition of fungal growth,Fusarium graminearum [6]; 0.5 μM defensin (alone),about 13%
same,yield versus untransformed Coker control,"Verticillium dahliae [7]; transgenic line 35.125.1, seed coat not used",not significantly different
same,uninfected plants at the end of the trial,"Verticillium dahliae [7]; transgenic line expressing NaD1, non-coated seeds",3.6%
same,average lesion size versus non-transgenic plants,"Leptosphaeria maculans [8]; 10, 14 and 17 days after inoculation",significantly smaller
same,disease scores versus non-transgenic RI64,"Leptosphaeria maculans [8]; Days 10, 14 and 17",significantly lower disease scores
same,SYTOX green uptake,F. graminearum hyphae [9],increases with increasing concentrations of NaD1
same,permeabilization activity among the plant defensins (ATP release),F. graminearum hyphae [10]; 1 μM defensin,highest permeabilization activity
same,ATP release,F. graminearum hyphae [10]; 0.125 to 10 μM NaD1,concentration dependant release of ATP
same,synergy with tebuconazole (Io higher than Ee),Fusarium graminearum [11],Synergy
same,growth of filamentous fungi,filamentous fungi,inhibit growth
same,protection from pathological effects of Fov infection versus untransformed parent variety,Fov [12],significantly protected
same,toxicity to cells,HeLa cells; human HeLa cells,not toxic
same,IC50,"HeLa cells; read-out: NaD1 IC50, growth inhibition, HeLa cells",> 10000 nM
same,toxicity to cells,[13]; Spodoptera frugiperda Sf-21 insect cells,not toxic
same,IC50,"[13]; read-out: NaD1 IC50, growth inhibition, Spodoptera frugiperda (Sf21)",> 10000 nM
same,effect on growth,Candida albicans,no effect
same,IC50,Candida albicans; [21],> 10000 nM
same,effect on growth,Saccharomyces cerevisiae,no effect
same,IC50,Saccharomyces cerevisiae; [21],> 10000 nM
same,effect on growth,Pichia pastoris,no effect
same,IC50,Pichia pastoris; [21],> 10000 nM
same,entry of 10 kDa FITC-dextran (23 Å) into NaD1-treated hyphae,Fov hyphae [14]; even at very high concentrations of NaD1,excluded
same,entry of 4 kDa FITC-dextran (14 Å) into NaD1-treated hyphae,Fov hyphae [14]; same NaD1 concentration that led to SYTOX green uptake,entered hyphae
same,CaCl2 concentration for complete inactivation of NaD1,Fov [15],< 2 mM
same,MgCl2 concentration for complete inactivation of NaD1,Fov [15],50 mM
same,antagonism of Ca2+ relative to Mg2+,Fov [15],greater than 20 times
same,ROS production (DHR123 oxidation fluorescence),Fov hyphae [16],concentration-dependent increase in fluorescence
same,time up to which amount of NaD1 in cytoplasm increased,Fov hyphae [17]; decreased slightly afterwards,60 min
same,time at which NaD1 uptake into cytoplasm occurred,Fov hyphae [17]; immunoblotting of cytoplasmic contents,20 min
same,resistance to fungal infection relative to non-transgenic lines,[18],more resistant to fungal infection than the non-transgenic lines
same,mortality,[19],approximately half the mortality of the non-transgenic plants
same,mortality,[20],7%
